In this series the test system is Hepatotoxicity. Nature of the series: Literature-mined public compounds from Greene et al multi-species hepatotoxicity modelling dataset.

As for `CC(=O)[C@H]1CC[C@H]2[C@@H]3CCC4=CC(=O)CC[C@]4(C)[C@H]3CC[C@]12C` [PROGESTERONE], the Hepatotoxicity result is listed as “HH: Evidence of human hepatotoxicity”. Consider `CN(CCCCCCCCCCN(C)C(=O)Oc1cccc([N+](C)(C)C)c1)C(=O)Oc1cccc([N+](C)(C)C)c1.[Br-].[Br-]` [DEMECARIUM BROMIDE], for which the Hepatotoxicity result is listed as “HH: Evidence of human hepatotoxicity”. The same measure for `S=C=Nc1ccc2ccccc2c1`: “WE: Weak evidence (<10 case reports) of human hepatotoxicity”; for GENTAMICIN: “NE: No evidence of hepatotoxicity in any species”; for `NC(CO)(CO)CO.O=C(c1ccccc1)c1ccc2n1CCC2C(=O)O` (configuration not stated) [KETOROLAC TROMETHAMINE]: “HH: Evidence of human hepatotoxicity”. As for `Nc1cc(Cl)c(O)c(Cl)c1.Nc1ccc(O)cc1`, the Hepatotoxicity entry is “AH: Evidence for animal hepatotoxicity but not tested in humans”.

As to `CO[C@@H]1[C@@H](OC(N)=O)[C@@H](O)[C@H](Oc2ccc3c(O)c(NC(=O)c4ccc(O)c(CC=C(C)C)c4)c(=O)oc3c2C)OC1(C)C` [NOVOBIOCIN], the Hepatotoxicity result was “HH: Evidence of human hepatotoxicity”.

In the case of `CN1CCC(=C2c3ccccc3C=Cc3ccccc32)CC1.Cl` [CYPROHEPTADINE HYDROCHLORIDE], the Hepatotoxicity entry is reported as “HH: Evidence of human hepatotoxicity”. Turning to `Clc1ccc(Cl)cc1` [1,4-DICHLOROBENZENE], the Hepatotoxicity result is given as “AH: Evidence for animal hepatotoxicity but not tested in humans”. The result for `NNC(=O)c1ccncc1` [ISONIAZID] reads “HH: Evidence of human hepatotoxicity”; that for `CC(C)(C(=O)O)c1ccc(C(O)CCCN2CCC(C(O)(c3ccccc3)c3ccccc3)CC2)cc1` (configuration not stated) [FEXOFENADINE], “NE: No evidence of hepatotoxicity in any species”; that for MERCURIC CHLORIDE, “AH: Evidence for animal hepatotoxicity but not tested in humans”.

For `CC[N+](C)(CC)CCOC(=O)C(O)(c1ccccc1)C1CCCCC1` (configuration not stated) [OXYPHENONIUM], the Hepatotoxicity result was “NE: No evidence of hepatotoxicity in any species”. For the compound `O=c1[nH]c(=O)n([C@@H]2O[C@H](CO)[C@@H](O)[C@@H]2F)cc1I` [FIALURIDINE], the Hepatotoxicity entry is on record as “HH: Evidence of human hepatotoxicity”.

`CN(C)CCCN1c2ccccc2Sc2ccccc21.Cl` [PROMAZINE HYDROCHLORIDE]: the Hepatotoxicity entry is listed as “WE: Weak evidence (<10 case reports) of human hepatotoxicity”. Take `O=C(O)c1ccccc1Nc1cccc(C(F)(F)F)c1` [FLUFENAMIC ACID]: the Hepatotoxicity result is on record as “WE: Weak evidence (<10 case reports) of human hepatotoxicity”.

`COc1cccc2c1C(=O)c1c(O)c3c(c(O)c1C2=O)C[C@@](O)(C(=O)CO)C[C@@H]3O[C@H]1C[C@H](N)[C@H](O)[C@H](C)O1.Cl` [DOXORUBICIN HYDROCHLORIDE]: the Hepatotoxicity entry is recorded as “HH: Evidence of human hepatotoxicity”. As for `CCCc1nc2c(C)cc(-c3nc4ccccc4n3C)cc2n1Cc1ccc(-c2ccccc2C(=O)O)cc1`, the Hepatotoxicity result is reported as “WE: Weak evidence (<10 case reports) of human hepatotoxicity”. The same measure for `COC(=O)C(c1ccccc1)C1CCCCN1` (configuration not stated) [METHYLPHENIDATE]: “HH: Evidence of human hepatotoxicity”. The result for `O[C@H]1[C@H](O)[C@@H](O)[C@H](O)[C@@H](O)[C@H]1O` [INOSITOL] reads “NE: No evidence of hepatotoxicity in any species”. With `CCC1(C)CC(=O)NC1=O` (configuration not stated) [ETHOSUXIMIDE], the Hepatotoxicity entry is on record as “HH: Evidence of human hepatotoxicity”.

For the compound `NC[C@@H]1O[C@H](O[C@H]2[C@@H](O)[C@H](O[C@@H]3[C@@H](O)[C@H](N)C[C@H](N)[C@H]3O[C@H]3O[C@H](CO)[C@@H](O)[C@H](O)[C@H]3N)O[C@@H]2CO)[C@H](N)[C@@H](O)[C@@H]1O.O=S(=O)(O)O` [PAROMOMYCIN SULFATE], the Hepatotoxicity entry is “NE: No evidence of hepatotoxicity in any species”. The same measure for `CC(COc1ccccc1)N(CCCl)Cc1ccccc1.Cl` (configuration not stated) [PHENOXYBENZAMINE HYDROCHLORIDE]: “NE: No evidence of hepatotoxicity in any species”; for `CCC1=C(C)CN(C(=O)NCCc2ccc(S(=O)(=O)NC(=O)N[C@H]3CC[C@H](C)CC3)cc2)C1=O` [GLIMEPIRIDE]: “WE: Weak evidence (<10 case reports) of human hepatotoxicity”; for `N#CC(C#N)=NNc1ccc(OC(F)(F)F)cc1`: “AH: Evidence for animal hepatotoxicity but not tested in humans”. The same measure for `CC1=C(/C=C/C(C)=C/C=C/C(C)=C/C(=O)O)C(C)(C)CCC1` [TRETINOIN]: “HH: Evidence of human hepatotoxicity”. The result for `CC(C)(C)NC[C@H](O)COc1nsnc1N1CCOCC1.O=C(O)/C=C\C(=O)O` [TIMOLOL MALEATE] reads “HH: Evidence of human hepatotoxicity”; that for `COc1cc(NS(C)(=O)=O)ccc1Nc1c2ccccc2nc2ccccc12.Cl` [AMSACRINE HYDROCHLORIDE], “HH: Evidence of human hepatotoxicity”; that for `ClC(Cl)Cl` [CHLOROFORM], “AH: Evidence for animal hepatotoxicity but not tested in humans”.

For the compound `O=C(OCC(O)CO)c1ccccc1Nc1ccnc2cc(Cl)ccc12` (configuration not stated) [GLAFENINE], the Hepatotoxicity result is “HH: Evidence of human hepatotoxicity”.

As for `O=c1[nH]cc(F)c(=O)[nH]1` [FLUOROURACIL], the Hepatotoxicity result is “HH: Evidence of human hepatotoxicity”. `CCCC(C)(COC(N)=O)COC(N)=O` [MEPROBAMATE]: the Hepatotoxicity entry is reported as “HH: Evidence of human hepatotoxicity”. On to `CCOC(=O)[C@H](CCc1ccccc1)N[C@@H](C)C(=O)N1Cc2ccccc2C[C@H]1C(=O)O`, for which the Hepatotoxicity result is given as “HH: Evidence of human hepatotoxicity”. The same measure for `CN1CCC(=C2c3ccccc3CC(=O)c3sccc32)CC1` [KETOTIFEN]: “NE: No evidence of hepatotoxicity in any species”; for `CC(=O)N[C@@H](CS)C(=O)O` [ACETYLCYSTEINE]: “NE: No evidence of hepatotoxicity in any species”. The same measure for `Cc1ncc(CO)c(CO)c1O` [PYRIDOXINE]: “NE: No evidence of hepatotoxicity in any species”. With `COc1cc(N)c(Cl)cc1C(=O)NC1CCN(CCCOc2ccc(F)cc2)CC1OC` (configuration not stated) [CISAPRIDE], the Hepatotoxicity entry is reported as “NE: No evidence of hepatotoxicity in any species”. The result for `CCO[C@@H](Cc1ccc(OCCN2c3ccccc3Oc3ccccc32)cc1)C(=O)O` [RAGAGLITAZAR] reads “NE: No evidence of hepatotoxicity in any species”; that for `CC[C@H]1OC(=O)[C@H](C)[C@@H](O[C@H]2C[C@@](C)(OC)[C@@H](O)[C@H](C)O2)[C@H](C)[C@@H](O[C@@H]2O[C@H](C)C[C@H](N(C)C)[C@H]2O)[C@](C)(OC)C[C@@H](C)C(=O)[C@H](C)[C@@H](O)[C@]1(C)O` [CLARITHROMYCIN], “HH: Evidence of human hepatotoxicity”. As to `CO[C@@]1(NC(=O)C(C(=O)[O-])c2ccc(O)cc2)C(=O)N2C(C(=O)[O-])=C(CSc3nnnn3C)CO[C@@H]21.[Na+].[Na+]` (some centres not stated) [MOXALACTAM DISODIUM], the Hepatotoxicity entry is “NE: No evidence of hepatotoxicity in any species”. On to `CC(C)(C)NCC(O)COc1cccc2c1CC(O)C(O)C2` (configuration not stated) [NADOLOL], for which the Hepatotoxicity entry was “NE: No evidence of hepatotoxicity in any species”. The same measure for `CNC(=O)Oc1ccc2c(c1)[C@]1(C)CCN(C)[C@@H]1N2C` [PHYSOSTIGMINE]: “NE: No evidence of hepatotoxicity in any species”; for `Cc1nc2n(c(=O)c1CCN1CCC(c3noc4cc(F)ccc34)CC1)CCCC2` [RISPERIDONE]: “HH: Evidence of human hepatotoxicity”; for `C=C1[C@@H]2CCC3[C@@](CC[C@@H]4[C@H](C(=O)O)C[C@@H](O[C@@H]5O[C@H](CO)[C@@H](OS(=O)(=O)[O-])[C@H](OS(=O)(=O)[O-])[C@H]5OC(=O)CC(C)C)C[C@@]34C)(C2)[C@@H]1O.[K+].[K+]` (some centres not stated) [ATRACTYLOSIDE]: “HH: Evidence of human hepatotoxicity”. The same measure for `CC[C@@H](CO)NC(=O)[C@@H]1C=C2c3cccc4[nH]cc(c34)C[C@H]2N(C)C1.O=C(O)/C=C\C(=O)O` [METHYLERGONOVINE MALEATE]: “NE: No evidence of hepatotoxicity in any species”; for `Cl.O=c1n(CCCN2CCN(c3cccc(Cl)c3)CC2)nc2ccccn12` [TRAZODONE HYDROCHLORIDE]: “HH: Evidence of human hepatotoxicity”; for `O=C1CC2(CCCC2)CC(=O)N1CCCCN1CCN(c2ncccn2)CC1` [BUSPIRONE]: “NE: No evidence of hepatotoxicity in any species”. Consider GADOLINIUM HYDROCHLORIDE, for which the Hepatotoxicity entry is “AH: Evidence for animal hepatotoxicity but not tested in humans”. Regarding `CC(=O)[C@]1(O)Cc2c(O)c3c(c(O)c2[C@@H](O[C@H]2C[C@H](N)[C@H](O)[C@H](C)O2)C1)C(=O)c1ccccc1C3=O.Cl` [IDARUBICIN HYDROCHLORIDE], the Hepatotoxicity result is “NE: No evidence of hepatotoxicity in any species”. As to `ClC=C(Cl)Cl` [TRICHLOROETHYLENE], the Hepatotoxicity entry is reported as “AH: Evidence for animal hepatotoxicity but not tested in humans”. As to `Nc1nc(NC2CC2)c2ncn([C@H]3C=C[C@@H](CO)C3)c2n1` [ABACAVIR], the Hepatotoxicity result is recorded as “HH: Evidence of human hepatotoxicity”. The result for `CCN(CC)CCNc1ccc(CO)c2sc3ccccc3c(=O)c12` [HYCANTHONE] reads “HH: Evidence of human hepatotoxicity”; that for `C1CCC(C(CC2CCCCN2)C2CCCCC2)CC1` (configuration not stated) [PERHEXILINE], “HH: Evidence of human hepatotoxicity”; that for `CCC[C@@H]1C[C@@H](C(=O)N[C@@H]([C@H]2O[C@H](SC)[C@H](O)[C@@H](O)[C@H]2O)[C@H](C)Cl)N(C)C1.Cl` [CLINDAMYCIN HYDROCHLORIDE], “HH: Evidence of human hepatotoxicity”. The result for `O=C(O)CCc1nc(-c2ccccc2)c(-c2ccccc2)o1` [OXAPROZIN] reads “HH: Evidence of human hepatotoxicity”; that for `C=C(C)[C@H]1CC=C(C)CC1` [D-LIMONENE], “AH: Evidence for animal hepatotoxicity but not tested in humans”; that for `NCCCC[C@H](N[C@@H](CCc1ccccc1)C(=O)O)C(=O)N1CCC[C@H]1C(=O)O` [LISINOPRIL ANHYDROUS], “HH: Evidence of human hepatotoxicity”.

These data come from ChEMBL document CHEMBL1697692, “Developing structure-activity relationships for the prediction of hepatotoxicity” (Chem Res Toxicol, 2010).
